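Cells were grown in 96-well plates and exposed to each compound for 48 hours at five concentrations; endpoints were interpolated linearly between bracketing concentrations, or set to the highest concentration if not reached. GI50: concentration for 50% inhibition of growth.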 Active and inactive are the calls of the source. Rule as the data show it: active = GI50 up to about 1.1 µM and inactive = higher. Where only a bound is given, the exact number is not on record here.

Holding throughout (experiment): growth of human tumour cells (NCI), 48 h
The test system of assay [1] is HCC 2998.
Assay [2] concerns ACHN.
Assay [3] relates to A549.
Assay [4] has as its system U-251.
Assay [5] relates to LOX IMVI.
For assay [6], the system named is OVCAR-5.
The subject of assay [7] is OVCAR-8.
The subject of assay [8] is MDA-MB-435.
For assay [9], the system named is NCI/ADR-RES.
For assay [10], the system named is EKVX.
Assay [11] has as its system SNB-19.
Assay [12] has as its system UACC-62.
The test system of assay [13] is SK-MEL-2.
Assay [14] deals with Malme-3M.
The test system of assay [15] is 786-0.
The subject of assay [16] is OVCAR-3.
Assay [17] relates to SK-MEL-28.
The test system of assay [18] is MDA-MB-231.
Assay [19] has as its system NCI-H23.
Assay [20] deals with HL-60.

For the compound `Cc1nnc2n1-c1ccccc1C(=S)N1CSCC21` (stereo unspecified), the GI50 in assay [1], in [2], in [3], in assay [4], in [5] and in assay [6] was > 100 µM (inactive) throughout. For the same compound, the GI50 in [7], in assay [8], in assay [9], in assay [10], in [11] and in [12] was > 100 µM (inactive) throughout. Further, the GI50 in [13], in assay [14], in assay [15], in assay [16], in [17] and in assay [18] was > 100 µM (inactive) throughout.

For `O=C1C2CCCCC2C(=O)N1n1c(Cc2ccc(Cl)cc2)n[nH]c1=O` (stereo unspecified), the GI50 in assay [1], in assay [2], in assay [3], in assay [4], in assay [5] and in assay [6] was > 100 µM (inactive) throughout. Moreover, the GI50 in [7], in [8], in assay [9], in assay [10], in [11] and in assay [12] was > 100 µM (inactive) in each case. The GI50 in assay [13], in assay [14], in assay [15], in [16], in [19] and in assay [18] was > 100 µM (inactive) throughout.

With `O=C1c2ccccc2C(=O)N1n1c(Cc2ccc(Cl)cc2)n[nH]c1=O`, the GI50 in assay [1], in [2], in assay [3], in assay [4], in assay [5] and in assay [6] was > 100 µM (inactive) each time. The GI50 in assay [7], in assay [8], in assay [9], in assay [10], in assay [11] and in assay [12] was > 100 µM (inactive) in each case. Moreover, the GI50 in assay [13], in [14], in assay [15], in [16], in assay [19] and in [17] was > 100 µM (inactive) throughout. Besides, the GI50 in assay [18] was > 100 µM (inactive).

As for `Nc1ccc2ccc(-c3ccc[nH]3)nc2n1`, the GI50 in [1], in assay [2], in assay [3], in assay [4], in assay [5] and in [6] was > 100 µM (inactive) each time. The GI50 in [7], in assay [8], in assay [9], in assay [10], in assay [11] and in [13] was > 100 µM (inactive) each time. Moreover, the GI50 in assay [14], in assay [15], in [16], in [19], in assay [17] and in [18] was > 100 µM (inactive) throughout.

As to `CCOC(=O)C1=C(N2CCCC2)C(=O)C(C(=O)OCC)C1` (stereo unspecified), the GI50 in assay [1], in assay [2], in [3], in assay [4], in assay [5] and in assay [6] was > 100 µM (inactive) throughout. Besides, the GI50 in [7], in assay [8], in [9], in assay [10], in assay [11] and in [13] was > 100 µM (inactive) throughout. The GI50 in assay [14], in [15], in assay [16], in assay [19], in assay [17] and in assay [18] was > 100 µM (inactive) each time.

On to `Cc1ccc(S(=O)(=O)Nn2c(S)c(C#N)c(-c3ccc([N+](=O)[O-])cc3)c(C#N)c2=O)cc1`, for which the GI50 is 31.6 µM (inactive) in assay [1]; 51.5 µM (inactive) in assay [2]; 47.9 µM (inactive) in [3]; 29 µM (inactive) in assay [4]; 14.8 µM (inactive) in assay [5]; 72.9 µM (inactive) in [6]. For the same compound, the GI50 in assay [7] was 36.6 µM (inactive); in assay [8], 23.2 µM (inactive); in assay [9] it was 33 µM (inactive); in [10] it was 32 µM (inactive); in assay [12], 25.8 µM (inactive); in assay [13], 23 µM (inactive). Besides, the GI50 in assay [14] is 61.5 µM (inactive); in assay [15] it was 20 µM (inactive); in assay [17], 32.6 µM (inactive); in assay [18], 17.7 µM (inactive).

For `CCCNC(=O)N(C)C(=O)N1N=C(c2ccccc2)C1c1ccccc1` (stereo unspecified), the GI50 in assay [1] is 60 µM (inactive); in assay [2], 90.6 µM (inactive); in assay [3], 78.9 µM (inactive); in [4], 89.9 µM (inactive); in assay [5], 75.5 µM (inactive); in [7], 55.7 µM (inactive). Moreover, the GI50 in [8] was 95.7 µM (inactive); in assay [9], > 100 µM (inactive); in [10] it was > 100 µM (inactive); in assay [11], > 100 µM (inactive); in assay [12] it was 59.3 µM (inactive); in assay [13], > 100 µM (inactive). The GI50 in assay [14] was 39.6 µM (inactive); in assay [15], > 100 µM (inactive); in [16], 61.7 µM (inactive); in assay [19], > 100 µM (inactive); in [17], > 100 µM (inactive); in [18] it was > 100 µM (inactive).

As to `Cc1cccc(NS(=O)(=O)c2ccc3c(c2)OCCOCCOCCOCCO3)c1`, the GI50 in assay [1], in assay [2], in assay [3], in assay [20], in assay [7] and in assay [8] was > 100 µM (inactive) in each case. The GI50 in assay [10], in [11], in [12], in assay [14], in [15] and in assay [19] was > 100 µM (inactive) in each case. Besides, the GI50 in assay [17] and in [18] was > 100 µM (inactive) throughout.

For the compound `CSc1nc(Cl)c2c(n1)Sc1nc3ccccc3n1N=C2`, the GI50 in assay [1] was 26.5 µM (inactive); in assay [2], 23.7 µM (inactive); in assay [3], 45.2 µM (inactive); in [4], 55.6 µM (inactive); in assay [5], 18.2 µM (inactive); in assay [6], 28.9 µM (inactive). Also, the GI50 in assay [7] is 19.1 µM (inactive); in assay [8], 29.7 µM (inactive); in assay [9] it was 21.7 µM (inactive); in assay [11] it was > 100 µM (inactive); in [12] it was 29.4 µM (inactive); in [13], 50.4 µM (inactive). For the same compound, the GI50 in [14] was 25.8 µM (inactive); in [15] it was 28.2 µM (inactive); in [16], 25.5 µM (inactive); in assay [19], 29.6 µM (inactive); in assay [17], 40.8 µM (inactive); in [18] it was 23.9 µM (inactive).

For `Cn1c(=O)nc2n(CCO)ccnc-2c1=O`, the GI50 in assay [1], in assay [2], in assay [3], in assay [4], in assay [5] and in assay [6] was > 100 µM (inactive) throughout. The GI50 in assay [7], in assay [8], in assay [9], in assay [10], in assay [11] and in [12] was > 100 µM (inactive) each time. Also, the GI50 in [13], in [14], in [15], in assay [16], in assay [19] and in [17] was > 100 µM (inactive) each time. Moreover, the GI50 in assay [18] was > 100 µM (inactive).

`Cc1c(O)c(=O)ccn1CCc1c[nH]c2ccccc12`: the GI50 in assay [2] was 3.08 µM (inactive); in assay [3], 9.35 µM (inactive); in assay [4], 6.55 µM (inactive); in assay [20], 19.4 µM (inactive); in assay [5] it was 0.0335 µM (active); in assay [6], 14.6 µM (inactive). In addition, the GI50 is 8.39 µM (inactive) in assay [7]; 17.2 µM (inactive) in assay [8]; 3.1 µM (inactive) in [9]; 6.31 µM (inactive) in [10]; 6.81 µM (inactive) in [11]; 18.2 µM (inactive) in assay [14]. In addition, the GI50 in assay [15] was 2.55 µM (inactive); in assay [19], 20.5 µM (inactive); in assay [18], 0.718 µM (active).

These data come from ChEMBL document CHEMBL1201862, “PubChem BioAssay data set” (2004).
